In paper PMC9367672, “In vitro differences in toddalolactone metabolism in various species and its effect on cytochrome P450 expression” (Pharmaceutical Biology, 2022):

How the values were obtained:
Format in all cases: in vitro ADME
[1] = Enzyme kinetics of toddalolactone metabolism in rat liver microsomes (oxidative metabolism and glucuronidation); settings: rat, liver microsomes, pH 7.4, RLMs, Vmax/Km
Description: (§1) The CYP reaction system (200 μL) consisted of 0.1 M potassium phosphate buffer (pH 7.4), an NADPH-generating system (1 mM NADPH, 10 mM G-6-P, 1 unit/mL G-6-PD, 4 mM MgCl2), and liver microsomes or recombinant human microsomes (supersomes). Each of the in vitro enzymatic assays using liver microsomes was linear with respect to incubation time and amount of protein. After a pre-incubation at 37 °C for 3 min, the reactions were initiated by adding NADP^+. After incubating for 60 min, the reactions were quenched by adding 200 μL of ice-cold acetonitrile. Samples were centrifuged at 18,000 g for 15 min at 4 °C and 10 μL of supernatant was analyzed using an HPLC system. NADPH or CYP enzyme sources were not used in the control group to ensure that the metabolic reactions were CYP- and NADPH-dependent. All incubation assays were completed in triplicate. The data are presented as mean ± standard deviation (SD).
(§2) In the UGT reaction system, liver microsomes were incubated in 200 μL of the reaction system containing 4 mM UDPGA, 5 mM MgCl2, 20 µg/mL alamethicin, and 50 mM Tris-HCl buffer (pH 7.4). After pre-incubation at 37 °C for 3 min, UDPGA was added to the mixture to initiate the reactions. The mixtures were incubated at 37 °C for 60 min, followed by the addition of 200 μL of cold methanol to terminate the reactions. After centrifugation at 18,000 g for 15 min, 10 μL of the supernatant was analyzed by HPLC.
(§3) The enzyme kinetics of toddalolactone in oxidative metabolism and glucuronidation were determined by incubating liver microsomes (0.2 mg/mL) or CYPs (15 nM) with different concentrations of toddalolactone (1–200 μM). The kinetic parameters including Km and Vmax were obtained by fitting the experimental data to the Michaelis–Menten equation (Equation (1)), biphasic kinetics equation (Equation (2)), or substrate inhibition equation (Equation (3)) (He et al. [2018]), and the results were graphically represented on Eadie–Hofstee plots. The in vitro intrinsic clearance (CLint) was calculated based on the Vmax/Km ratio. Metabolites were quantified using the standard curve for toddalolactone because of the absence of metabolite standards. All incubations were repeated in three independent experiments. Kinetic constants were expressed with mean ± SD: (1) V=Vmax×[S]/Km+[S] (2) V=Vmax1×[S]/Ks1+[S]+Vmax2×[S]/Ks2+[S] (3) V=Vmax×[S]/Ks+[S]+[S]^2/Ksi where v is the rate of reaction, Vmax is the estimated maximum velocity, [S] is the substrate concentration, and Km is the affinity constant of the substrate; Vmax1 and Vmax2 represent the estimated maximum velocity of the two metabolic phases; Ks1 and Ks2 represent the affinity constants for two metabolic phases; Ks and Ksi are the substrate affinity and inhibition constants, respectively.
(§4) The enzyme kinetics in oxidative metabolism and glucuronidation of toddalolactone were studied, and preliminary experiments were performed to ensure that metabolites were formed in the linear range of both reaction time and microsomal protein concentration. The metabolite with the largest peak area was used to calculate the kinetic parameter values (Km, Vmax and CLint). Based on the results of toddalolactone metabolism in different species, the kinetic parameter values in RLMs, DLMs, MLMs, HLMs, RAMs, MIMs, PLMs, CYP1A1 and CYP3A5 were calculated using P4, P4, P4, P4, P2, P2, P4, P4 and P4 data in oxidative metabolism, respectively. In the glucuronidation reaction, the kinetic parameter values in RLMs, MLMs, HLMs, RAMs and PLMs were calculated using P5, P6, P6, P6 and P5 data, respectively.

[2] = tested on: RLMs; assay: as above; settings: RLMs; for V max: toddalolactone 1–200 μM
Description: as §1, §2, §3, §4

[3] = Enzyme kinetics of toddalolactone metabolism in rabbit liver microsomes (oxidative metabolism and glucuronidation); settings: rabbit, liver microsomes, pH 7.4, RAMs, Vmax/Km
Description: as §1, §2, §3, §4

[4] = tested on: RAMs; assay: as above; settings: RAMs; for V max: toddalolactone 1–200 μM
Description: as §1, §2, §3, §4

[5] = Metabolic stability assessment in mini pig liver microsomes; settings: pH 7.4, PLMs, toddalolactone 20 μM, 0-90 min
Description: as §1, with “NADPH or CYP enzyme sources were not used in the control group to ensure that the metabolic reactions were CYP- and NADPH-dependent. All incubation assays were completed in triplicate. The data are presented as mean ± standard deviation (SD).” left out
(§5) In the UGT reaction system, liver microsomes were incubated in 200 μL of the reaction system containing 4 mM UDPGA, 5 mM MgCl2, 20 µg/mL alamethicin, and 50 mM Tris-HCl buffer (pH 7.4). […] After centrifugation at 18,000 g for 15 min, 10 μL of the supernatant was analyzed by HPLC.
(§6) Toddalolactone (20 μM) was incubated with different liver microsomes, including HLMs, DLMs, PLMs, MLMs, RAMs, RLMs or MIMs in oxidative metabolism and glucuronidation reaction systems. […] The mixtures were centrifuged at 18,000 g for 15 min at 4 °C and then 10 μL of the supernatant was analyzed by HPLC. […]
(§7) The peak areas of toddalolactone and its metabolites were detected using a HPLC system (Shimadzu, Kyoto, Japan). […]

[6] = Metabolic stability assessment in rabbit liver microsomes; settings: pH 7.4, RAMs, toddalolactone 20 μM, 0-90 min
Description: as §1, with “NADPH or CYP enzyme sources were not used in the control group to ensure that the metabolic reactions were CYP- and NADPH-dependent. All incubation assays were completed in triplicate. The data are presented as mean ± standard deviation (SD).” left out
as §5, §6, §7

[7] = P450-catalyzed oxidation, P4 formation
[8] = glucuronide metabolism, P5 formation
[9] = P450-catalyzed oxidation, P2 formation
[10] = glucuronide metabolism, P6 formation
[11] = CYP incubation system, read-out: half-life value (T1/2)
[12] = UGT incubation system, read-out: T1/2 value

## COc1cc2oc(=O)ccc2c(OC)c1C[C@@H](O)C(C)(C)O [toddalolactone]
[1]; [7]
  microsomal CLint: 1.31 µL/min/mg
[1]; [8]
  microsomal CLint: 0.69 µL/min/mg
[2]; [7]
  K m: 121.13 ± 31.89 µM
  V max: 158.26 ± 20.52 pmol/min/mg protein
[2]; [8]
  K m: 79.11 ± 22.56 µM
  V max: 55.89 ± 6.61 pmol/min/mg protein
[3]; [9]
  microsomal CLint: 0.26 µL/min/mg
[3]; [10]
  microsomal CLint: 0.12 µL/min/mg
[4]; [9]
  K m: 76.46 ± 16.02 µM
  V max: 20.03 ± 1.72 pmol/min/mg protein
[4]; [10]
  K m: 91.46 ± 28.22 µM
  V max: 11.98 ± 2.19 pmol/min/mg protein
[5]; [11]
  half-life at 20 μM: 5.12 ± 0.467 h
[5]; [12]
  half-life at 20 μM: 1.42 ± 0.0717 h
[6]; [11]
  half-life at 20 μM: 6.78 ± 0.517 h
[6]; [12]
  half-life at 20 μM: 2.07 ± 0.138 h
